According to patent publication US10160747B2, “Compounds and methods for kinase modulation, and indications therefor” (Plexxikon Inc., priority 2016, dated 2018):

Columns and labels:
FLT3-D835Y = target: T1, FLT3-D835Y (Homo sapiens, UniProt P36888, D835Y); test: FLT3-D835Y recombinant enzyme kinase assay (AlphaScreen); type: biochemical; conditions: 8 pt, GMean
T1 construct: purchased Invitrogen PV3967
T1 sequence (P36888 27-993 D835Y): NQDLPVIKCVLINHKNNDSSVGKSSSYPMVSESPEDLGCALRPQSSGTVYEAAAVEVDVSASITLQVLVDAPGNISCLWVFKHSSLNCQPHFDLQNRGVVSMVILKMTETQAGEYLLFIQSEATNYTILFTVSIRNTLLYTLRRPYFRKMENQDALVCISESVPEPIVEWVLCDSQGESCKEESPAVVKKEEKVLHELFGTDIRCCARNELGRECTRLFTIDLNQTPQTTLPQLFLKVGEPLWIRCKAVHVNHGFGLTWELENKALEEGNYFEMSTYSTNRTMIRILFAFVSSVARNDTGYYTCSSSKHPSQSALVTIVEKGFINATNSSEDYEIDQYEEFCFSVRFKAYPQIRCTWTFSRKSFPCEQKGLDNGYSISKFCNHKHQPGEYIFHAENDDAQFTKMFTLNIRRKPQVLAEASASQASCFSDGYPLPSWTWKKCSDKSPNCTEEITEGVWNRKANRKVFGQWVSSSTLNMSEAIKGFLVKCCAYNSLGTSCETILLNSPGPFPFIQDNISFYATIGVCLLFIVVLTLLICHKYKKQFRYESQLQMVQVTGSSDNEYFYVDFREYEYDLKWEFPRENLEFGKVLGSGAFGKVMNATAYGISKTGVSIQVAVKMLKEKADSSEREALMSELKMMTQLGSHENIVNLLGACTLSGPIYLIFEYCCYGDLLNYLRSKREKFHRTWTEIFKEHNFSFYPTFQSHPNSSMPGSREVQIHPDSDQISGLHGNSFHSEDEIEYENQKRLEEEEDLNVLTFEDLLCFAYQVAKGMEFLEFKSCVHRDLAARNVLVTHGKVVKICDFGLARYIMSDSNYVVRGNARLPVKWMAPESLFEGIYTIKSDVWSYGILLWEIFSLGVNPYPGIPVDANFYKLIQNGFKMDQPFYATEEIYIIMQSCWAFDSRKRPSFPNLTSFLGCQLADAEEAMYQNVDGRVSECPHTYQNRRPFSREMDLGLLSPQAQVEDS
Procedure, shortened: (§1)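 AlphaScreen proximity signal at 580 nm, from PY20 acceptor and streptavidin donor beads, measures tyrosine phosphorylation of 30 nM biotin-poly(Glu4-Tyr) peptide by recombinant kinase. ATP: 10 μM (FLT3 mutants), 100 μM (c-KIT). IC50 from loss of signal.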

c-KIT = target: T2, c-KIT (Homo sapiens, UniProt P10721); test: c-KIT recombinant enzyme kinase assay (AlphaScreen); type: biochemical; conditions: 100 ATP, 8 pt
T2 construct: purchased Millipore 14-559K
T2 sequence (P10721 26-976): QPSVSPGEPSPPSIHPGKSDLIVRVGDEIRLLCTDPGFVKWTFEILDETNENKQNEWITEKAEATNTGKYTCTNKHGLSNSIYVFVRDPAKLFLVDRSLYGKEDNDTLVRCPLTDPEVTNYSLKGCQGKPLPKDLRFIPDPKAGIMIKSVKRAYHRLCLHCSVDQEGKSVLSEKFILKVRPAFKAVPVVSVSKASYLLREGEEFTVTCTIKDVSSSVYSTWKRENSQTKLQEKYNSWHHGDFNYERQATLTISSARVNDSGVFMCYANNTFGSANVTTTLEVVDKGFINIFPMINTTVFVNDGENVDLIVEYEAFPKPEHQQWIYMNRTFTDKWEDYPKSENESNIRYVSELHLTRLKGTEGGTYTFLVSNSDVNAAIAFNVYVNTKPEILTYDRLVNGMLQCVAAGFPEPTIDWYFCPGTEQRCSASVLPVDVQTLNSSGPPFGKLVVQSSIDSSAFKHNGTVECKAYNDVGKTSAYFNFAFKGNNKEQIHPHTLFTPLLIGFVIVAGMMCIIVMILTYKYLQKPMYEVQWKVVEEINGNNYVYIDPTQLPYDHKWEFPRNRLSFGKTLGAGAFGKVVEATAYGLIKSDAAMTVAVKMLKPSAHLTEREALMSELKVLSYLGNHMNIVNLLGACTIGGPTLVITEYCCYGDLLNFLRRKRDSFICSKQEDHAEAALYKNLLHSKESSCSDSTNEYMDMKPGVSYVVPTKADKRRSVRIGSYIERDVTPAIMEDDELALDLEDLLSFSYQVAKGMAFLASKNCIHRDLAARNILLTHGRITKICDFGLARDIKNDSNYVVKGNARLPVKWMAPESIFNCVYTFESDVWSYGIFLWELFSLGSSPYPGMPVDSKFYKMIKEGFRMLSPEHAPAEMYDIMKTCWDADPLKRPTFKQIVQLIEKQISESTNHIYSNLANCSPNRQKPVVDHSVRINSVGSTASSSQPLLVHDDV
Procedure, shortened: as §1

IC50 (FLT3-D835Y) [µM]	IC50 (c-KIT) [µM]	SMILES
0.0001 to 10	0.0001 to 10	Cn1cc(Nc2ncc(-c3ccc(CC(=O)Nc4cncc(C(C)(F)F)c4)cc3)cn2)cn1 [Compound P-0144, N-[5-(1,1-difluoroethyl)-3-pyridyl]-2-[4-[2-[(1-methylpyrazol-4-yl)amino]pyrimidin-5-yl]phenyl]acetamide]
0.0001 to 10	0.0001 to 10	Cn1cc(Nc2ncc(-c3ccc(CC(=O)Nc4cnc(Cl)c(C(F)(F)F)c4)cc3)cn2)cn1 [Compound P-0145, N-[6-chloro-5-(trifluoromethyl)-3-pyridyl]-2-[4-[2-[(1-methylpyrazol-4-yl)amino]pyrimidin-5-yl]phenyl]acetamide]
0.0001 to 10	0.0001 to 10	Cn1cc(Nc2ncc(-c3ccc(CC(=O)Nc4ccc(C(C)(C)C#N)nc4)cc3)cn2)cn1 [Compound P-0146, N-[6-(1-cyano-1-methyl-ethyl)-3-pyridyl]-2-[4-[2-[(1-methylpyrazol-4-yl)amino]pyrimidin-5-yl]phenyl]acetamide]
0.0001 to 10	0.0001 to 10	COc1ncc(NC(=O)Cc2ccc(-c3cnc(Nc4cn(C)cn4)nc3)cc2)cc1C(F)(F)F [Compound P-0149, N-[6-methoxy-5-(trifluoromethyl)-3-pyridyl]-2-[4-[2-[(1-methylimidazol-4-yl)amino]pyrimidin-5-yl]phenyl]acetamide]
0.0001 to 10	0.0001 to 10	Cc1ncc(NC(=O)Cc2ccc(-c3cnc(Nc4cn(C)cn4)nc3)cc2)cc1C(F)(F)F [Compound P-0150, 2-[4-[2-[(1-methylimidazol-4-yl)amino]pyrimidin-5-yl]phenyl]-N-[6-methyl-5-(trifluoromethyl)-3-pyridyl]acetamide]
0.0001 to 10	0.0001 to 10	Cn1cc(Nc2ncc(-c3ccc(CC(=O)Nc4cnnc(Cl)c4)cc3)cn2)cn1 [Compound P-0151, N-(6-chloropyridazin-4-yl)-2-[4-[2-[(1-methylpyrazol-4-yl)amino]pyrimidin-5-yl]phenyl]acetamide]
0.0001 to 10	0.0001 to 10	Cn1cc(Nc2ncc(-c3ccc(CC(=O)Nc4cccc(C(F)(F)F)n4)cc3)cn2)cn1 [Compound P-0152, 2-[4-[2-[(1-methylpyrazol-4-yl)amino]pyrimidin-5-yl]phenyl]-N-[6-(trifluoromethyl)-2-pyridyl]acetamide]
0.0001 to 10	0.0001 to 10	Cn1cc(Nc2ncc(-c3ccc(CC(=O)Nc4ccnc(S(C)(=O)=O)c4)cc3)cn2)cn1 [Compound P-0154, 2-[4-[2-[(1-methylpyrazol-4-yl)amino]pyrimidin-5-yl]phenyl]-N-(2-methylsulfonyl-4-pyridyl)acetamide]
0.0001 to 10	0.0001 to 10	Cn1cc(Nc2ncc(-c3ccc(CC(=O)Nc4cccc(S(C)(=O)=O)c4)cc3)cn2)cn1 [Compound P-0155, 2-[4-[2-[(1-methylpyrazol-4-yl)amino]pyrimidin-5-yl]phenyl]-N-(3-methylsulfonylphenyl)acetamide]
0.0001 to 10	0.0001 to 10	Cn1cc(Nc2ncc(-c3ccc(CC(=O)Nc4ccc(S(C)(=O)=O)cc4)cc3)cn2)cn1 [Compound P-0156, 2-[4-[2-[(1-methylpyrazol-4-yl)amino]pyrimidin-5-yl]phenyl]-N-(4-methylsulfonylphenyl)acetamide]
0.0001 to 10	0.0001 to 10	Cn1cc(Nc2ncc(-c3ccc(CC(=O)Nc4cccc(OC(F)(F)F)c4)cc3)cn2)cn1 [Compound P-0157, 2-[4-[2-[(1-methylpyrazol-4-yl)amino]pyrimidin-5-yl]phenyl]-N-[3-(trifluoromethoxy)phenyl]acetamide]
0.0001 to 10	0.0001 to 10	Cn1cc(Nc2ncc(-c3ccc(CC(=O)Nc4cccc(C(C)(C)C#N)c4)cc3)cn2)cn1 [Compound P-0158, N-[3-(1-cyano-1-methyl-ethyl)phenyl]-2-[4-[2-[(1-methylpyrazol-4-yl)amino]pyrimidin-5-yl]phenyl]acetamide]
0.0001 to 10	0.0001 to 10	Cn1cc(Nc2ncc(-c3ccc(CC(=O)NCc4cncc(C(F)(F)F)c4)cc3)cn2)cn1 [Compound P-0161, 2-[4-[2-[(1-methylpyrazol-4-yl)amino]pyrimidin-5-yl]phenyl]-N-[[5-(trifluoromethyl)-3-pyridyl]methyl]acetamide]
0.0001 to 10	0.0001 to 10	CCn1cc(Nc2ncc(-c3ccc(CC(=O)Nc4cnc(Cl)c(C(F)(F)F)c4)cc3)cn2)cn1 [Compound P-0165, N-[6-chloro-5-(trifluoromethyl)-3-pyridyl]-2-[4-[2-[(1-ethylpyrazol-4-yl)amino]pyrimidin-5-yl]phenyl]acetamide]
0.0001 to 10	0.0001 to 10	CCn1cc(Nc2ncc(-c3ccc(CC(=O)Nc4cncc(C(F)(F)F)c4)cc3)cn2)cn1 [Compound P-0166, 2-[4-[2-[(1-ethylpyrazol-4-yl)amino]pyrimidin-5-yl]phenyl]-N-[5-(trifluoromethyl)-3-pyridyl]acetamide]
0.0001 to 10	0.0001 to 10	Cn1cnc(Nc2ncc(-c3ccc(CC(=O)Nc4cncc(C(F)(F)F)c4)cc3)cn2)c1 [Compound P-0167]
0.0001 to 10	0.0001 to 10	Cn1cnc(Nc2ncc(-c3ccc(CC(=O)Nc4cnc(F)c(C(C)(F)F)c4)cc3)cn2)c1 [Compound P-0168, N-[5-(1,1-difluoroethyl)-6-fluoro-3-pyridyl]-2-[4-[2-[(1-methylimidazol-4-yl)amino]pyrimidin-5-yl]phenyl]acetamide]
0.0001 to 10	0.0001 to 10	Cn1cnc(Nc2ncc(-c3ccc(CC(=O)Nc4cc(C(C)(F)F)ccn4)cc3)cn2)c1 [Compound P-0169, N-[4-(1,1-difluoroethyl)-2-pyridyl]-2-[4-[2-[(1-methylimidazol-4-yl)amino]pyrimidin-5-yl]phenyl]acetamide]
0.0001 to 10	0.0001 to 10	Cn1cnc(Nc2ncc(-c3ccc(CC(=O)Nc4cnc(F)c(C(C)(F)F)c4)cc3F)cn2)c1 [Compound P-0170, N-[5-(1,1-difluoroethyl)-6-fluoro-3-pyridyl]-2-[3-fluoro-4-[2-[(1-methylimidazol-4-yl)amino]pyrimidin-5-yl]phenyl]acetamide]
0.0001 to 10	0.0001 to 10	Cc1n[nH]c2ncc(-c3cc(F)c(CC(=O)Nc4cncc(C(F)(F)F)c4)cc3F)cc12 [Compound P-0173, 2-[2,5-difluoro-4-(3-methyl-1H-pyrazolo[3,4-b]pyridin-5-yl)phenyl]-N-[5-(trifluoromethyl)-3-pyridyl]acetamide]
0.0001 to 10	0.0001 to 10	COc1ncc(NC(=O)Cc2ccc(-c3cnc4[nH]nc(C)c4c3)c(F)c2)cc1C(F)(F)F [Compound P-0174, 2-[3-fluoro-4-(3-methyl-1H-pyrazolo[3,4-b]pyridin-5-yl)phenyl]-N-[6-methoxy-5-(trifluoromethyl)-3-pyridyl]acetamide]
0.0001 to 10	0.0001 to 10	Cc1ncc(NC(=O)Cc2cc(F)c(-c3cnc4[nH]nc(C)c4c3)cc2F)cc1C(F)(F)F [Compound P-0175, 2-(2,5-difluoro-4-(3-methyl-1H-pyrazolo[3,4-b]pyridin-5-yl)phenyl)-N-(6-methyl-5-(trifluoromethyl)pyridin-3-yl)acetamide]
0.0001 to 10	0.0001 to 10	COc1ncc(NC(=O)Cc2cc(F)c(-c3cnc4[nH]nc(C)c4c3)cc2F)cc1C(F)(F)F [Compound P-0176, 2-[2,5-difluoro-4-(3-methyl-1H-pyrazolo[3,4-b]pyridin-5-yl)phenyl]-N-[6-methoxy-5-(trifluoromethyl)-3-pyridyl]acetamide]
